Patent US20210283163A1, “COMPOSITIONS AND METHODS FOR THE TREATMENT OF ACUTE AND CHRONIC PRURITIS” (Duke University, priority 2018, published 2021)

What was measured:
DRG neurons = experiment: Calcium imaging in cultured DRG neurons of Pirt-GCaMP3 mice; type: cell-based, mouse; settings: histamine 500 μM, CQ 1,000 μM, AITC 200 μM; for DRG neurons showing Ca2+ increase / responses: miR-711 50 μM, 544 neurons from 3 mice
Protocol: (§1) Primary Cultures of Mouse and Human Sensory Neurons. […] Cells were mechanically dissociated with a flame polished Pasteur pipette in the presence of 0.05% DNase I (Sigma).
(§2) Ca^2+ Imaging. […] The imaging buffer includes 140 mM NaCl, 10 mM D-(+)-Glucose, 1 mM MgCl2, 2 mM CaCl2, 5 mM KCl, 10 mM HEPES, pH=7.4, osmolarity=320 mOsm/L. Calcium signals were measured using green emitted light in a 3 s interval. Ca ^2+ signal amplitudes were presented as ΔF/F0=(Ft−F0)/F0 as ratio of fluorescence difference (Ft−F0) to basal value (F0). The average fluorescence intensity in the baseline period was taken as F0. Ca ^2+ imaging was also analyzed in HEK293-TRPA1 cell line after loading cells with […] fura2-AM (Invitrogen) for 40 min in the Ca^2+ imaging buffer. Ca^2+ imaging protocol was a ratio metric method with 340/380-nm wavelength light for dual excitation. Data were presented as ΔR/R0, determined as the fraction ΔR (Rt−R0) of the increase of a given ratio over baseline ratio (R0).

TG neurons = experiment: Calcium imaging in TG neurons of Pirt-GCaMP3 mice; type: cell-based, mouse; settings: histamine 500 μM, CQ 1000 μM, AITC 200 μM; for TG neurons responding (calcium): miR-711 50 μM, 204 neurons
Protocol: as §1, §2

CTCL mice = experiment: Mouse CTCL xenograft model of chronic itch; type: in vivo; settings: given 20 days after Myla cell inoculation; hsa-miR-711 inhibitor 100 μM, HC030031 200 μM, A967079 50 μM, peptides 2 mM
Protocol: Mouse CTCL Xenograft Model of Chronic Itch. We developed a murine xenograft model of cutaneous T cell lymphoma (CTCL) using immune-deficient mice (NOD.CB17-Prkdcscid, 8-10 weeks old, male). CD4^+ MyLa cell line was purchased from Sigma (Ca #95051032). The cell line was established from a plaque biopsy of a person with mycosis fungoides stage II by inclusion of IL-2 and IL-4 in the culture medium. CTCL was generated via intradermal injection of CD4^+ Myla cells (1×10^5 cells/μl, 100 μL) on the nape of the neck. Tumor growth was assessed for 40 days by measurements of tumor diameters.
(§3) Behavioral Assessment for Scratching (Itch) and Wiping (Pain). Mice were shaved on the cheek or nape after a brief anesthesia with isoflurane. Before experiments, mice were habituated in small plastic chambers (14×18×12 cm) daily for two days. The room temperature and humidity remained stable for all the experiments. […] After the injection, the number of scratches in 60 min was counted. A scratch was counted when a mouse lifted its hind paw to scratch the shaved region and returned the paw to the floor or to the mouth. A bout of wiping was defined as a continuous wiping movement with a forepaw directing at the area of the injection area (Shimada and LaMotte, Pain 2008, 139, 681-687). Scratching and wiping behavior was videoed for 30 min or 60 min using Sony HDR-CX610 camera. The video was subsequently played back offline and the numbers of scratches and wipes were quantified in a blinded manner.
Generation of Myla Stable Cell Line Expressing miR-711 Inhibitor. CD4^+ Myla cells were plated at a density of 2×10^5 cells/mL in 2 mL culture media in 6-well plates. For each well, 20 μL of the MISSION Lenti microRNA Inhibitor (hsa-miR-711) lentivirus (Sigma) with a titer of 2.6×10^7 Tu/mL were added. Cell mixtures were incubated at 37° C. for 48 hr, washed with PBS three times, and re-suspended in fresh culture media, and 24 hr later, 1 μg/mL puromycin was added to the cells to select stably transduced cell populations. We tried to grow and passage the cells as much as necessary (usually 3 days) and maintained selection pressure by keeping 1 μg/mL puromycin in the medium. After 4 weeks, a large number of the cells were killed; the remaining cells retained the expression of the plasmid, which stably integrates into the genome of the targeted cells. These cells were used for inoculation to generate the CTCL model for testing the effects of miR-711 inhibitor on chronic itch and tumor growth.

naive mice = type: in vivo, mouse; settings: naive mice; for scratching (itch) after intradermal cheek injection / wiping (pain) after intradermal cheek injection: 1 mM, 5 μL
Protocol: as §3

hTRPA1 = hTRPA1 (Homo sapiens, UniProt O75762); experiment: Whole-cell patch clamp, inward currents in HEK293 cells expressing hTRPA1; type: cell-based; settings: bath application; miRNAs and core sequence 10 μM, AITC 50 μM
Protocol: Cell Culture and Transfection. CD4^+ Myla cell line was cultured in RPMI 1640 media (GIBCO), supplemented with 2 mM Glutamine (GIBCO), 100 U/mL IL-2 (Sigma), 100 U/mL IL-4 (Sigma), and 10% human AB serum (Sigma). HuT 102 cell line was cultured in RPMI 1640 supplemented with pyruvate, HEPES, and 10% (v/v) fetal bovine serum (HyClone). HEK293-hTRPA1 stable cell line was cultured in MEM (GIBCO) containing 2 mM Glutamine, 4 μg/mL Blasticidin, 10% FBS (v/v). B16 and CHO cells were cultured in high glucose (4.5 g/L) Dulbecco's Modified Eagle's Medium (GIBCO) containing 10% (v/v) fetal bovine serum (GIBCO). Culture media were supplemented with 50 units/mL of penicillin and 50 μg/mL streptomycin, and cultures were maintained with 5% CO2 in 37° C. incubator. Transfection (2 μg cDNA) was performed with Lipofectamine™ 2000 Reagent (Invitrogen) at 80% confluency and the transfected cells were cultured in the same media for 48 hr before electrophysiological and biochemical studies.
Whole-Cell Patch Clamp Recordings in HEK293 Cells, CHO Cells, and DRG Neurons. Whole-cell patch clamp recordings were performed at room temperature using an Axopatch-200B amplifier (Axon Instruments) with a Digidata 1440B (Axon Instruments). In this study, we only examined small-diameter mouse DRG neurons (<25 μM) and small-diameter human DRG neurons (<55 μM). The patch pipettes were pulled from borosilicate capillaries (World Precision Instruments) using a P-97 Flaming/Brown micropipette puller (Sutter Instrument). Pipette resistance was 4-6 MΩ for whole-cell and outside-out recording. For inward current recordings in mouse and human DRG neurons, HEK293 cells, and CHO cells, the internal solution contains (in mM): 140 CsCl, 10 EGTA, 10 HEPES, and 2 Mg-ATP, adjusted to pH 7.3 with CsOH. Whole cell recordings were performed in an extracellular solution that contains (in mM): 140 NaCl, 5 KCl, 2 MgCl2, 10 HEPES, and 10 glucose, adjusted to pH 7.4 with NaOH and osmolarity to 300-310 mOsm. […] Action potential recordings were performed in small-diameter DRG neurons, with the following solutions: i) internal pipette solution contains: 126 mM K-gluconate, 10 mM NaCl, 1 mM MgCl2, 10 mM EGTA, 10 mM HEPES and 2 mM Na-ATP, adjusted to pH 7.4 with KOH and osmolarity to 295-300 mOsm), and ii) extracellular solution contains: 140 mM NaCl, 5 mM KCl, 2 mM MgCl2, 2 mM CaCl2, 10 mM HEPES, 10 mM glucose, adjusted to pH 7.4 with KOH.

human DRG neurons = experiment: Whole-cell patch clamp, inward currents in human DRG neurons; type: cell-based; settings: 10 μM; small diameters
Protocol: Non-diseased human DRGs were obtained from donors through National Disease Research Interchange (NDRI) with permission of exemption from the Duke University Institutional Review Board (IRB). Postmortem L3-L5 DRGs were dissected from 4 donors and delivered in ice cold culture medium to the laboratory at Duke University within 24-72 hr of the donor's death. Upon the delivery, DRGs were rapidly dissected from nerve roots and minced in a calcium-free HBSS (GIBCO). Human DRG cultures were prepared as previously reported (Chang et al., Neurosci. Bull. 2018, 34, 4-12; Han et al., Neuron 2016, 92, 1279-1293). DRGs were digested at 37° C. in a humidified CO2 incubator for 120 min with collagenase Type II (Worthington, 290 units/mg, 12 mg/mL final concentration) and dispase II (Roche, 1 unit/mg, 20 mg/mL) in PBS with 10 mM HEPES, pH adjusted to 7.4 with NaOH. DRGs were mechanically dissociated using fire-polished pipettes, filtered through a 100 μm nylon mesh and centrifuged (500 g for 5 min). The pellet was resuspended, plated on 0.5 mg/mL poly-D-lysine-coated glass coverslips, and grown in Neurobasal medium supplemented with 10% FBS, 2% B-27 supplement, and 1% penicillin/streptomycin. Whole-cell patch-clamp recordings in small (<[…]) human DRG neurons were conducted at room temperature using patch pipettes with resistances of 3-4 MΩ.
Whole-Cell Patch Clamp Recordings in HEK293 Cells, CHO Cells, and DRG Neurons. Whole-cell patch clamp recordings were performed at room temperature using an Axopatch-200B amplifier (Axon Instruments) with a Digidata 1440B (Axon Instruments). In this study, we only examined small-diameter mouse DRG neurons (<25 μM) and small-diameter human DRG neurons (<55 μM). The patch pipettes were pulled from borosilicate capillaries (World Precision Instruments) using a P-97 Flaming/Brown micropipette puller (Sutter Instrument). Pipette resistance was 4-6 MΩ for whole-cell and outside-out recording. […]

mice = experiment: Back model: intradermal nape injection, scratching; type: in vivo, mouse; settings: 1 mM, 10 μL
Protocol: as §3

Sequence of hTRPA1 (O75762 whole entry): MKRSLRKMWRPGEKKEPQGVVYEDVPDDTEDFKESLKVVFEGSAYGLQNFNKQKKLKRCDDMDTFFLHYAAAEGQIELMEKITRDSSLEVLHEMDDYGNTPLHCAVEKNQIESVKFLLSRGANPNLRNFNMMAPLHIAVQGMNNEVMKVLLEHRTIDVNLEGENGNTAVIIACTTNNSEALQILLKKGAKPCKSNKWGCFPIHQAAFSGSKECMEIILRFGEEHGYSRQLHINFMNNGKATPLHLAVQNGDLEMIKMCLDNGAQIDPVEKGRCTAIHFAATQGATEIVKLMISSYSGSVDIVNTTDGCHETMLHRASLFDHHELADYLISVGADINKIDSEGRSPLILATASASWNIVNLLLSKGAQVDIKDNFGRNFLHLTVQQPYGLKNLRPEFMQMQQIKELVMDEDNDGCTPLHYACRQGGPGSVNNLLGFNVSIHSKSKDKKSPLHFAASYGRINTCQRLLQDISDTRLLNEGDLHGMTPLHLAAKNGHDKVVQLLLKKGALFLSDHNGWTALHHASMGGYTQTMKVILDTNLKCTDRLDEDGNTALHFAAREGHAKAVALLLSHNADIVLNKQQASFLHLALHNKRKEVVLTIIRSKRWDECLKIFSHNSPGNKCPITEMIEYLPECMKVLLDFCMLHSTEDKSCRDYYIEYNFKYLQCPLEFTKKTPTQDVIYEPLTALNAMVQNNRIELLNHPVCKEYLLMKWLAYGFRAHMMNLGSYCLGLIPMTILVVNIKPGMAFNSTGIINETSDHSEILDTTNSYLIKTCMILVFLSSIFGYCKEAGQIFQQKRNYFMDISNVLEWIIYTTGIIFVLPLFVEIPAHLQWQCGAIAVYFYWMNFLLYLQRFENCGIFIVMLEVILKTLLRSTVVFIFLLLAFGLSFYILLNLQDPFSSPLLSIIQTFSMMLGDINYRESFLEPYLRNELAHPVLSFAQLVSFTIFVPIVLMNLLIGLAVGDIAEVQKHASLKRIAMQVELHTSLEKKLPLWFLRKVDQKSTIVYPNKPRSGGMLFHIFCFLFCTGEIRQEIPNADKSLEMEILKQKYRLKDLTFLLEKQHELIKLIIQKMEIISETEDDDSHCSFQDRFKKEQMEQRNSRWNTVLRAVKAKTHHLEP

CCN(CC)CCCC(C)Nc1ccnc2cc(Cl)ccc12 (centres unmarked) [CQ, chloroquine]
miR-711-responsive DRG neurons that also responded (DRG neurons): 66.7% | DRG neurons showing Ca2+ increase / responses (DRG neurons): 5.1% | miR-711-responsive TG neurons that also responded (TG neurons): 76% | TG neurons responding (calcium) (TG neurons): 9.3%

CC(C)c1ccc(NC(=O)Cn2cnc3c2c(=O)n(C)c(=O)n3C)cc1 [HC30031, 2-(1,3-Dimethyl-2,6-dioxo-1,2,3,6-tetrahydro-7H-purin-7-yl)-N-(4-isopropylphenyl)acetamide]
effect on CTCL-evoked chronic itch (CTCL mice): suppressed

NCCc1c[nH]cn1 [histamine]
miR-711-responsive DRG neurons that also responded (DRG neurons): 61.9% | DRG neurons showing Ca2+ increase / responses (DRG neurons): 5.5% | miR-711-responsive TG neurons that also responded (TG neurons): 52% | TG neurons responding (calcium) (TG neurons): 6.9%

AAAAAAA: Mmu-miR-711 mutant: aaaaaaa (SEQ ID NO: 17) (listed as RNA, chemistry not given here)
scratching after intradermal injection of 7-nucleotide oligos (naive mice): did not affect | wiping after intradermal injection of 7-nucleotide oligos (naive mice): did not affect

GGGACCC: mmu-miR-711 core: gggaccc (SEQ ID NO: 1) (listed as RNA, chemistry not given here)
inward currents (hTRPA1): inward currents induced | scratching after intradermal injection of 7-nucleotide oligos (naive mice): sufficient to elicit scratching | wiping after intradermal injection of 7-nucleotide oligos (naive mice): not wiping

hsa-miR-642b-3p: hsa-miR-642b-3p: agacacauuuggagagggaccc (SEQ ID NO: 10) (AGACACAUUUGGAGAGGGACCC; listed as RNA, chemistry not given here)
inward currents in human DRG neurons (human DRG neurons): induced similar inward currents | scratching (itch) after intradermal cheek injection (naive mice): resulted in pruritus | wiping (pain) after intradermal cheek injection (naive mice): failed to elicit wiping

hsa-miR-711: hsa-miR-711: gggacccagggagagagacguaag (SEQ ID NO: 9) (GGGACCCAGGGAGAGAGACGUAAG; listed as RNA, chemistry not given here)
inward currents in human DRG neurons (human DRG neurons): evoked TRPA1-dependent inward currents | scratching (itch) after intradermal cheek injection (naive mice): able to evoke pruritus | wiping (pain) after intradermal cheek injection (naive mice): failed to elicit wiping

m1: mutant of miR-711: aaaacccggggagagauguaag (SEQ ID NO: 11) (AAAACCCGGGGAGAGAUGUAAG; listed as RNA, chemistry not given here)
scratching (itch) after intradermal cheek injection (naive mice): marked reduction in scratching

m2: mutant of miR-711: gggaaaaggggagagauguaag (SEQ ID NO: 12) (GGGAAAAGGGGAGAGAUGUAAG; listed as RNA, chemistry not given here)
scratching (itch) after intradermal cheek injection (naive mice): marked reduction in scratching

miR-155: mmu-miR-155: uuaaugcuaauugugauaggggu (SEQ ID NO: 7) (UUAAUGCUAAUUGUGAUAGGGGU; listed as RNA, chemistry not given here)
scratching after intradermal injection on the nape of neck (mice): no effects | wiping (pain) after intradermal cheek injection (naive mice): Neither did

miR-326: mmu-miR-326: gggggcagggccuuugugaaggcg (SEQ ID NO: 8) (GGGGGCAGGGCCUUUGUGAAGGCG; listed as RNA, chemistry not given here)
scratching after intradermal injection on the nape of neck (mice): no effects | wiping (pain) after intradermal cheek injection (naive mice): Neither did
